Reference: patent US20030236202A1, “Natural products and derivatives thereof for protection against neurodegenerative diseases” (priority 2002, published 2003)

Tests used:
[1] = Compound in cerebrospinal fluid of rats after oral administration (gas chromatography); format: in vivo, rat; conditions: rats which had received tyrosol orally
[2] = tested on: primary hippocampal cultures from rat; assay: Neuroprotection: rescue of neuronal cells from neurotoxin-induced apoptosis; format: cell-based; conditions: 50 μM
Experimental: The capacity of two phenolic compounds to rescue neuronal cells from different kind of stressors was tested. To primary hippocampal cultures from rat, different neurotoxins (glutamate, hydrogen peroxide or beta-amyloid peptide) were added in such concentrations that in half of the cells apoptosis was induced. Then, together with the toxins, hydroxytyrosol or tyrosol were added in a final concentration of 50 μM, and the cells were incubated for 24 h. at 37° C. Subsequently, apoptosis was measured in the cell cultures and the number of cells that were protected by this treatment as compared to a control was calculated. […] Hydroxytyrosol protected around 60% of the cells against hydrogen peroxide, 35% against glutamate-induced neurotoxicity, and 45% against beta-amyloid induced apoptosis.

[3] = Total antioxidant capacity of cerebrospinal fluid after oral administration; format: in vivo; conditions: rat, 100 mg oral, after 15 min
Experimental: Several rats were given 100 mg hydroxytyrosol by oral administration. After 15 min a small amount of cerebrospinal fluid was taken from the rat and analysed for the presence of hydroxytyrosol. Also the total antioxidant capacity in this fluid was measured and compared with a control. The detection of hydroxytyrosol was accomplished by gas chromatography and concentrations were determined by a standard curve. Hydroxytyrosol reached a concentration between 0.1 and 0.2 mM in cerebrospinal fluid after 15 minutes of oral administration. Moreover, the total antioxidant capacity of cerebrospinal fluid increased by 35% under these conditions as compared to a control.

[4] = tested on: Beta-amyloid peptide (1-40); assay: Prevention of metal-induced beta-amyloid precipitation (turbidometric assay); conditions: 25 μM compound, 10 μM beta-amyloid (1-40)
Experimental: Therefore, an experiment was performed to study its capacity to solubilize beta-amyloid peptide from insoluble aggregates. Beta-amyloid peptide (1-40) was brought to 10 μM in 150 mM NaCl, 50 mM HEPES (pH 7.4), and mixed with 10 μM CuCl2 or 10 μM FeCl3. Precipitation of beta-amyloid peptide by copper and iron was measured by a turbidometric assay (Huang et al. J. Biol. Chem. 1997, 272(42), 26464-70). Copper- and iron-induced turbidity was almost completely abolished (>90%) by the presence of 25 μM hydroxytyrosol.

[5] = biological target: T1, monoamine oxidase B (MAO-B) (Rattus norvegicus, UniProt P19643); assay: Monoamine oxidase inhibition, purified mitochondria from rat brain tissue; format: biochemical; conditions: benzylamine (300 μM) as substrate
T1 construct: MAO-B enzyme activities were measured using purified mitochondria from rat brain tissue; from tissue; host or cells: purified mitochondria from rat brain tissue
T1 sequence (P19643 1-520): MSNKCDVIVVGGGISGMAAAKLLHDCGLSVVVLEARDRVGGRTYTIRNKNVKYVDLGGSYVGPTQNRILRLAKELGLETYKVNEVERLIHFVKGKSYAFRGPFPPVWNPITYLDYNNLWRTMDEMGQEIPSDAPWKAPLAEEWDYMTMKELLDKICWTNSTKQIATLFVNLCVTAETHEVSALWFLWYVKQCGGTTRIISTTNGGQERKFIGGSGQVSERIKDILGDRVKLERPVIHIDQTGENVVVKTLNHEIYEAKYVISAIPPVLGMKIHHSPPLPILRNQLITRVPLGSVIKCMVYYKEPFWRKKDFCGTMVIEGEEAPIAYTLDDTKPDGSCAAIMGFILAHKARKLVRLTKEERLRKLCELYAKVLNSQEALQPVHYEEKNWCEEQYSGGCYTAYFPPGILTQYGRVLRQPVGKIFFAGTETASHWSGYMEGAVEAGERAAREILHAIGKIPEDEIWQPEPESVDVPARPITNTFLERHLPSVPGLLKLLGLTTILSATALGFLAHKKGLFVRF
Experimental: We determined the IC50 of hydroxytyrosol for monoamine oxidase B (MAO-B). Therefore, MAO-B enzyme activities were measured using purified mitochondria from rat brain tissue as described previously (Holt et al. Anal. Biochem. 1997, 244, 384-392). Benzylamine (300 μM) was used as a substrate for MAO-B and the IC50 was calculated by adding different amounts of hydroxytyrosol to the enzyme assay.

[6] = Binding of metal ions
[7] = 24 h at 37° C., toxin inducing apoptosis in half of the cells

Structure (SMILES)	Tyrosol in cerebrospinal fluid (in words) [1]	Protection of cells from dying (in words) ([2]; 24 h, glutamate, hydrogen peroxide or beta-amyloid peptide)	Increase of total antioxidant capacity of cerebrospinal fluid as compared to a control [3] [%]	Cells protected against beta-amyloid induced apoptosis [2, 7] [%]	Cells protected against glutamate-induced neurotoxicity [2, 7] [%]	Cells protected against hydrogen peroxide [2, 7]	Copper-induced turbidity abolished ([4]; 10 μM CuCl2, pH 7.4) [%]	Iron-induced turbidity abolished ([4]; 10 μM FeCl3, pH 7.4) [%]	IC50 [5] [µM]	Binding of iron, zinc and copper ions (in words) [6]
OCCc1ccc(O)cc1 [Tyrosol, 2-(4-hydroxyphenyl) ethanol]	detected	protected part of the cells from dying	–	–	–	–	–	–	–	–
OCCc1ccc(O)c(O)c1 [Hydroxytyrosol, 2-(3,4-dihydroxyphenyl) ethanol]	–	–	35	~45	~35	around 60%	> 90	> 90	16.3 ± 1.3	high affinity
